# pIC50: −log10 of the molar value. Where a name gives a salt, the structure may show the parent alone.
# Test system: not given
# Test: not given
# Settings: not given
row,melting point,Structure (SMILES)
1,243 to 245 °C (dec.),"Cl.Cl.N=C(N)c1ccc2cc(CCCCCc3cc4ccc(C(=N)N)cc4o3)oc2c1 [Compound 29, 2-(5-(6-Amidinobenzofuran-2-yl)pentyl)benzofuran-6-carboxamidine dihydrochloride]"
2,308 to 310 °C (dec.),"Cl.Cl.c1cc2cc(CCCCCc3cc4ccc(C5=NCCN5)cc4o3)oc2cc1C1=NCCN1 [Compound 31, 4,5-Dihydro-2-(2-(5-(6-(4,5-dihydro-1H-imidazol-2-yl)benzofuran-2-yl)pentyl)benzofuran-6-yl)-1H-imidazole dihydrochloride]"
3,325 to 327 °C (dec.),"Cl.Cl.N=C(N)c1ccc2oc(CCCCc3cc4cc(C(=N)N)ccc4o3)cc2c1 [Compound 20, 2-(4-(5-Amidinobenzofuran-2-yl)butyl)benzofuran-5-carboxamidine dihydrochloride]"
4,362 °C (dec.),"Cl.Cl.N=C(N)c1ccc2cc(CCc3cc4ccc(C(=N)N)cc4o3)oc2c1 [Compound 11, 2-(2-(6-Amidinobenzofuran-2-yl)ethyl)benzofuran-6-carboxamidine dihydrochloride]"
5,343 to 345 °C (dec.),"Cl.Cl.c1cc2cc(CCCCc3cc4ccc(C5=NCCN5)cc4o3)oc2cc1C1=NCCN1 [Compound 25, 4,5-Dihydro-2-(2-(4-(6-(4,5-dihydro-1H-imidazol-2-yl)benzofuran-2-yl)butyl)benzofuran-6-yl)-1H-imidazole dihydrochloride]"
6,> 300 °C (dec.),"Cl.Cl.N=C(N)c1ccc2cc(CCCc3cc4ccc(C(=N)N)cc4o3)oc2c1 [Compound 17, 2-(3-(6-Amidinobenzofuran-2-yl)propyl)benzofuran-6-carboxamidine dihydrochloride]"
7,328 to 330 °C (dec.),"Cl.Cl.N=C(N)c1ccc2cc(CCCCc3cc4ccc(C(=N)N)cc4o3)oc2c1 [Compound 23, 2-(4-(6-Amidinobenzofuran-2-yl)butyl)benzofuran-6-carboxamidine dihydrochloride]"
8,245 to 246 °C (dec.),"CONC(=N)c1ccc2oc(CCc3cc4cc(C(=N)NOC)ccc4o3)cc2c1 (as salt: HCl) [Compound 191, 2-(2-(5-(N-Methoxycarbamimidoyl)benzofuran-2-yl)ethyl)-N-methoxybenzofuran-5-carboxamidine]"
9,212 to 214 °C,"Cl.Cl.N=C(N)c1ccc2oc(Cc3cc4cc(C(=N)N)ccc4o3)cc2c1 [Compound 4, 2-((5-Amidinobenzofuran-2-yl)methyl)benzofuran-5-carboxamidine dihydrochloride]"
10,> 300 °C (dec.),"Cl.Cl.c1cc2cc(CCCc3cc4ccc(C5=NCCN5)cc4o3)oc2cc1C1=NCCN1 [Compound 19, 4,5-Dihydro-2-(2-(3-(6-(4,5-dihydro-1H-imidazol-2-yl)benzofuran-2-yl)propyl)benzofuran-6-yl)-1H-imidazole dihydrochloride]"
11,168 to 170 °C,"Cl.Cl.N=C(N)c1ccc2oc(CCCc3cc4cc(C(=N)N)ccc4o3)cc2c1 [Compound 14, 2-(3-(5-Amidinobenzofuran-2-yl)propyl)benzofuran-5-carboxamidine dihydrochloride]"

# The next lines start with the molecule.
row,Structure (SMILES),melting point
1,"c1cc(OCCCCCCOc2ccc(C3=NCCN3)cc2)cc(-c2cc3cc(C4=NCCN4)ccc3o2)c1 (as salt: salt) [Compound 43, 2-(2-(3-(6-(4-(4,5-Dihydro-1H-imidazol-2-yl)phenoxy)hexyloxy)phenyl)benzofuran-5-yl)-4,5-dihydro-1H-imidazole]",178 to 182 °C
2,"Cl.Cl.c1cc2cc(CCc3cc4ccc(C5=NCCN5)cc4o3)oc2cc1C1=NCCN1 [Compound 13, 4,5-dihydro-2-(2-(2-(6-(4,5-dihydro-1H-imidazol-2-yl)benzofuran-2-yl)ethyl)benzofuran-6-yl)-1H-imidazole dihydrochloride]",> 360 °C
3,"N=C(NO)c1ccc(-c2cc3ccc(C(=N)NO)cc3o2)cc1 (as salt: HCl) [Compound 181, 2-(4-(N-Hydroxycarbamimidoyl)phenyl)-N-hydroxybenzofuran-6-carboxamidine]",210 °C (dec.)
4,"CONC(=N)c1ccc2oc(CCCCc3cc4cc(C(=N)NOC)ccc4o3)cc2c1 (as salt: HCl) [Compound 189, 2-(4-(5-(N-Methoxycarbamimidoyl)benzofuran-2-yl)butyl)-N-methoxybenzofuran-5-carboxamidine]",248 to 250 °C (dec.)
5,"N=C(NO)c1ccc2oc(CCCc3cc4cc(C(=N)NO)ccc4o3)cc2c1 (as salt: HCl) [Compound 185, 2-(3-(5-(N-Hydroxycarbamimidoyl)benzofuran-2-yl)propyl)-N-hydroxybenzofuran-5-carboxamidine]",145 to 147 °C (dec.)
6,"N=C(NO)c1ccc2oc(CCCCCc3cc4cc(C(=N)NO)ccc4o3)cc2c1 (as salt: HCl) [Compound 192, 2-(5-(5-(N-Hydroxycarbamimidoyl)benzofuran-2-yl)pentyl)-N-hydroxybenzofuran-5-carboxamidine]",120 °C (dec.)
7,"N=C(NO)c1ccc(OCCCOc2ccc(-c3cc4cc(C(=N)NO)ccc4o3)cc2)cc1 (as salt: HCl) [Compound 182, 2-(4-(3-(4-(N-Hydroxycarbamimidoyl)phenoxy)propoxy)phenyl)-N-hydroxybenzofuran-5-carboxamidine]",204 °C (dec.)
8,"N=C(NO)c1ccc2cc(CCCCCc3cc4ccc(C(=N)NO)cc4o3)oc2c1 (as salt: HCl) [Compound 184, 2-(5-(6-(N-Hydroxycarbamimidoyl)benzofuran-2-yl)pentyl)-N-hydroxybenzofuran-6-carboxamidine]",220 °C (dec.)
9,"CONC(=N)c1ccc2cc(CCCCCc3cc4ccc(C(=N)NOC)cc4o3)oc2c1 (as salt: HCl) [Compound 187, 2-(5-(6-(N-Methoxycarbamimidoyl)benzofuran-2-yl)pentyl)-N-methoxybenzofuran-6-carboxamidine]",230 to 231 °C (dec.)
10,"CONC(=N)c1ccc2oc(CCCc3cc4cc(C(=N)NOC)ccc4o3)cc2c1 (as salt: HCl) [Compound 188, 2-(3-(5-(N-Methoxycarbamimidoyl)benzofuran-2-yl)propyl)-N-methoxybenzofuran-5-carboxamidine]",89 to 90 °C (dec.)
11,"N=C(NO)c1ccc(OCCCCCOc2ccc(-c3cc4cc(C(=N)NO)ccc4o3)cc2)cc1 (as salt: HCl) [Compound 183, 2-(4-(5-(4-(N-Hydroxycarbamimidoyl)phenoxy)pentyloxy)phenyl)-N-hydroxybenzofuran-5-carboxamidine]",202 °C (dec.)
12,Cl.Cl.N=C(N)c1ccc(OCCCOc2ccc(-c3cc4ccc(C(=N)N)cc4o3)cc2)cc1,294 to 295 °C
13,"N=C(NO)c1cccc(-c2cc3ccc(C(=N)NO)cc3o2)c1 (as salt: HCl) [Compound 180, 2-(3-(N-Hydroxycarbamimidoyl)phenyl)-N-hydroxybenzofuran-6-carboxamidine]",210 °C (dec.)
14,"N=C(NO)c1ccc2oc(CCCCc3cc4cc(C(=N)NO)ccc4o3)cc2c1 (as salt: HCl) [Compound 186, 2-(4-(5-(N-Hydroxycarbamimidoyl)benzofuran-2-yl)butyl)-N-hydroxybenzofuran-5-carboxamidine]",231 °C (dec.)
15,"Cl.Cl.c1cc(C2=NCCN2)c2cc(Cc3cc4c(C5=NCCN5)cccc4o3)oc2c1 [Compound 3, Bis(4-(4,5-dihydro-1H-imidazol-2-yl)benzofuran-2-yl)methane dihydrochloride]",333 to 335 °C
16,"CONC(=N)c1ccc2oc(CCCCCc3cc4cc(C(=N)NOC)ccc4o3)cc2c1 (as salt: HCl) [Compound 193, 2-(5-(5-(N-Methoxycarbamimidoyl)benzofuran-2-yl)pentyl)-N-methoxybenzofuran-5-carboxamidine]",118 °C (dec.)
17,"Cl.Cl.c1cc2oc(Cc3cc4cc(C5=NCCN5)ccc4o3)cc2cc1C1=NCCN1 [Compound 6, Bis(5-(4,5-dihydro-1H-imidazol-2-yl)benzofuran-2-yl)methane dihydrochloride]",233 to 235 °C
18,"Cl.Cl.c1cc2oc(CCCc3cc4cc(C5=NCCN5)ccc4o3)cc2cc1C1=NCCN1 [Compound 16, 4,5-Dihydro-2-(2-(3-(5-(4,5-dihydro-1H-imidazol-2-yl)benzofuran-2-yl)propyl)benzofuran-5-yl)-1H-imidazole dihydrochloride]",203 to 205 °C
19,"Cl.Cl.c1cc2oc(CCCCc3cc4cc(C5=NCCN5)ccc4o3)cc2cc1C1=NCCN1 [Compound 22, 4,5-Dihydro-2-(2-(4-(5-(4,5-dihydro-1H-imidazol-2-yl)benzofuran-2-yl)butyl)benzofuran-5-yl)-1H-imidazole dihydrochloride]",323 to 324 °C (dec.)
20,"Cl.Cl.c1cc2oc(CCc3cc4cc(C5=NCCN5)ccc4o3)cc2cc1C1=NCCN1 [Compound 10, 4,5-Dihydro-2-(2-(2-(5-(4,5-dihydro-1H-imidazol-2-yl)benzofuran-2-yl)ethyl)benzofuran-5-yl)-1H-imidazole dihydrochloride]",366 °C (dec.)
21,"Cl.Cl.c1cc2oc(CCCCCc3cc4cc(C5=NCCN5)ccc4o3)cc2cc1C1=NCCN1 [Compound 28, 4,5-Dihydro-2-(2-(5-(5-(4,5-dihydro-1H-imidazol-2-yl)benzofuran-2-yl)pentyl)benzofuran-5-yl)-1H-imidazole dihydrochloride]",155 to 157 °C
22,"Cl.Cl.c1cc2cc(Cc3cc4ccc(C5=NCCN5)cc4o3)oc2cc1C1=NCCN1 [Compound 7, Bis(6-(4,5-dihydro-1H-imidazol-2-yl)benzofuran-2-yl)methane dihydrochloride]",341 to 343 °C

# Test system: Plasmodium falciparum
# Test: Anti-protozoan data: P. falcip. IC50
# Type: cell-based
# Settings: Tables VI(a), VI(c), read-out: P. falcip. IC50
row,Structure (SMILES),pIC50
1,"N=C(NO)c1ccc(OCCCCCOc2ccc(-c3cc4cc(C(=N)NO)ccc4o3)cc2)cc1 [Compound 183, 2-(4-(5-(4-(N-Hydroxycarbamimidoyl)phenoxy)pentyloxy)phenyl)-N-hydroxybenzofuran-5-carboxamidine]",6.54

# Test system: not listed separately
# Test: in vitro
# Settings: not given
row,Structure (SMILES),pIC50
1,"N=C(NO)c1ccc(OCCCCCOc2ccc(-c3cc4cc(C(=N)NO)ccc4o3)cc2)cc1 [Compound 183, 2-(4-(5-(4-(N-Hydroxycarbamimidoyl)phenoxy)pentyloxy)phenyl)-N-hydroxybenzofuran-5-carboxamidine]",5.08

# Test system: Trypanosoma brucei rhodesiense
# Test: Anti-protozoan data: T.b.r. IC50
# Type: cell-based
# Settings: Tables VI(a), VI(c), read-out: T.b.r. IC50
row,Structure (SMILES),pIC50
1,"N=C(NO)c1ccc(OCCCCCOc2ccc(-c3cc4cc(C(=N)NO)ccc4o3)cc2)cc1 [Compound 183, 2-(4-(5-(4-(N-Hydroxycarbamimidoyl)phenoxy)pentyloxy)phenyl)-N-hydroxybenzofuran-5-carboxamidine]",5.81
